Data as given in US20210113659A1, “ENGINEERED THERAPEUTIC TO ENHANCE CYTOTOXIC ACTIVITY AND PHAGOCYTOSIS IN TUMOR ASSOCIATED MACROPHAGES” (University of Massachusetts, priority 2019, published 2021).

Tested on: 4T1 cells or B16 F10 cells
Test: Cytotoxic efficacy using MTS assay
Type: cell-based
Conditions: lower concentrations, 72 h
Description: Cytotoxic Efficacy of DNTs Using MTS Assay: 5×10^3 4T1 cells or B16 F10 cells per well were seeded in a 96 well plate and left overnight to adhere. The cells were serum starved for 6 h by incubating them in serum free basal medium. The cells were incubated with either free drugs or DNTs of equivalent free drug concentrations for 72 h. The cells were washed with PBS and the medium was replaced with phenol red free DMEM followed by incubation in a mixture of MTS and PMS (1:20) solution for 30 min. Absorbance was measured at 480 nm using a BioTek plate reader. The data was analyzed using graph pad.

SMILES: CC1(N)CCN(c2cnc(-c3cccc(Cl)c3Cl)c(N)n2)CC1.Cl.Cl [SHP099, 6-(4-Amino-4-methylpiperidin-1-yl)-3-(2,3-dichlorophenyl)pyrazin-2-amine dihydrochloride]
- effect on the viability of cancer cells: did not have a significant effect
